PubChem BioAssay AID240 (DTP/NCI, 2004)
Values joined by “and” are separate entries in the source; they are usually repeats but may differ in a detail not shown here. Equal entries are not always repeated. Toxic doses and inconclusive results are not listed. Starred links: 1 amine or outer side, 2 acyl side, 3 side chain; linkers in the order of their positions; H or OH if unused. Positions of bridges follow the written chain, without caps; N, C: chain ends. Non-standard residues stand in square brackets, D forms with d. Residues, ends and D or L forms follow the SMILES beside them. Chains are numbered I, II in the order given. Actinocin(9to1) = Cc1c2oc3c(C)ccc(C(=O)[*:1])c3nc-2c(C(=O)[*:2])c(N)c1=O; aThr = C[C@H](O)[C@H](N)C(=O)O; NMeV = CN[C@H](C(=O)O)C(C)C; Sar = CNCC(=O)O

Tested on: Lymphoma 4 ip in BDF1 mice, median survival
Assay: NCI In Vivo Anticancer Drug Screen. Data for tumor model Lymphoma 4 (intraperitoneal) in B6D2F1 (BDF1) mice
Details: endpoint: median survival time, schedule: Q01DX010 (ip), higher = longer survival
Experimental: The antitumor activity of compounds was measured in mice bearing transplantable tumors. Survival or tumor size were measured and the results are expressed as the measurement made in the treated group (T) divided by the measurement made in the vehicle treated control group (C). The tumor model used in this assay is Lymphoma 4 (intraperitoneal) in B6D2F1 (BDF1) mice

[1] = dose: 7.5 mg/kg/injection, vehicle: saline
[2] = dose: 15.0 mg/kg/injection, vehicle: saline
[3] = dose: 30.0 mg/kg/injection, vehicle: saline
[4] = dose: 62.5 mg/kg/injection, vehicle: saline
[5] = dose: 125.0 mg/kg/injection, vehicle: saline
[6] = dose: 250.0 mg/kg/injection, vehicle: saline
[7] = dose: 200.0 mg/kg/injection, vehicle: saline
[8] = dose: 400.0 mg/kg/injection, vehicle: saline
[9] = dose: 8.0 mg/kg/injection, vehicle: saline
[10] = dose: 10.0 mg/kg/injection, vehicle: saline
[11] = dose: 0.5 mg/kg/injection, vehicle: saline
[12] = dose: 20.0 mg/kg/injection, vehicle: saline
[13] = dose: 50.0 mg/kg/injection, vehicle: saline
[14] = dose: 100.0 mg/kg/injection, vehicle: saline
[15] = dose: 1.25 mg/kg/injection, vehicle: saline
[16] = dose: 0.25 mg/kg/injection, vehicle: saline
[17] = dose: 1.0 mg/kg/injection, vehicle: saline
[18] = dose: 3.13 mg/kg/injection, vehicle: saline
[19] = dose: 6.25 mg/kg/injection, vehicle: saline
[20] = dose: 12.5 mg/kg/injection, vehicle: saline
[21] = dose: 25.0 mg/kg/injection, vehicle: saline
[22] = dose: 2.0 mg/kg/injection, vehicle: saline
[23] = dose: 4.0 mg/kg/injection, vehicle: saline
[24] = dose: 5.0 mg/kg/injection, vehicle: saline
[25] = dose: 500.0 mg/kg/injection, vehicle: saline

Clc1ncnc2nc[nH]c12
T/C [1]: 100 % of control and 102 % of control | T/C [2]: 90 % of control and 94 % of control | T/C [3]: 90 % of control and 105 % of control | T/C (dose: 60.0 mg/kg/injection, vehicle: saline): 96 % of control and 100 % of control

Nc1c(Br)cc2c(c1Br)Cc1cc([N+](=O)[O-])ccc1-2
T/C (dose: 15.6 mg/kg/injection, vehicle: saline): 100 % of control | T/C (dose: 31.3 mg/kg/injection, vehicle: saline): 107 % of control and 118 % of control | T/C [4]: 107 % of control and 111 % of control | T/C [5]: 111 % of control and 114 % of control | T/C [6]: 103 % of control

O=c1cnn(C2OC(CO)C(O)C2O)c(=O)[nH]1 (stereo unspecified)
T/C [7]: 106 % of control | T/C [8]: 112 % of control | T/C (dose: 800.0 mg/kg/injection, vehicle: saline): 106 % of control

O=C(Nc1ccc(C2=NCCN2)cc1)c1ccc(C(=O)Nc2ccc(C3=NCCN3)cc2)c([N+](=O)[O-])c1
T/C (dose: 6.0 mg/kg/injection, vehicle: saline): 157 % of control | T/C [9]: 189 % of control and 278 % of control | T/C (dose: 12.0 mg/kg/injection, vehicle: saline): 185 % of control and 300 % of control | T/C (dose: 18.0 mg/kg/injection, vehicle: saline): 96 % of control and 121 % of control

Cc1c2oc3c(C)ccc(C(=O)N[C@@H]4C(=O)N[C@H](C(C)C)C(=O)N5CCC[C@H]5C(=O)N(C)CC(=O)N(C)[C@@H](C(C)C)C(=O)O[C@H]4C)c3nc-2c(C(=O)N[C@@H]2C(=O)N[C@H](C(C)C)C(=O)N3CCC[C@H]3C(=O)N(C)CC(=O)N(C)[C@@H](C(C)C)C(=O)O[C@H]2C)c(N)c1=O (I: [aThr][dV]P[Sar][NMeV] / II: [aThr][dV]P[Sar][NMeV]; ester I:1-I:C, II:1-II:C; linker I:N-II:N via Actinocin(9to1))
T/C (dose: 12.5 micrograms/kg/injection, vehicle: other): 114 % of control and 123 % of control | T/C (dose: 25.0 micrograms/kg/injection, vehicle: other): 123 % of control | T/C (dose: 50.0 micrograms/kg/injection, vehicle: other): 150 % of control and 179 % of control | T/C (dose: 100.0 micrograms/kg/injection, vehicle: other): 194 % of control

CCOC(N)=O
T/C [5]: 103 % of control and 117 % of control | T/C [6]: 106 % of control and 111 % of control

CC[n+]1c(-c2ccccc2)c2cc(N)ccc2c2ccc(N)cc21
T/C [10]: 242 % of control

CC[C@]1(O)C[C@H]2CN(CCc3c([nH]c4ccccc34)[C@@](C(=O)OC)(c3cc4c(cc3OC)N(C=O)[C@H]3[C@@](O)(C(=O)OC)[C@H](OC(C)=O)[C@]5(CC)C=CCN6CC[C@]43[C@@H]65)C2)C1
T/C (dose: 0.03 mg/kg/injection, vehicle: saline): 104 % of control and 121 % of control | T/C (dose: 0.06 mg/kg/injection, vehicle: saline): 108 % of control | T/C (dose: 0.12 mg/kg/injection, vehicle: saline): 158 % of control | T/C [11]: 104 % of control

OCC1OC(n2cnc3c(=S)nc[nH]c32)C(O)C1O (stereo unspecified)
T/C [12]: 96 % of control and 105 % of control | T/C (dose: 40.0 mg/kg/injection, vehicle: saline): 106 % of control and 111 % of control | T/C (dose: 80.0 mg/kg/injection, vehicle: saline): 100 % of control and 109 % of control | T/C (dose: 160.0 mg/kg/injection, vehicle: saline): 100 % of control and 105 % of control

CS(=O)(=O)OCC(O)C(O)C(O)C(O)COS(C)(=O)=O (stereo unspecified)
T/C [13]: 100 % of control | T/C [14]: 103 % of control | T/C [7]: 103 % of control | T/C [8]: 114 % of control

S=P(N1CCOCC1)(N1CC1)N1CC1
T/C (dose: 0.63 mg/kg/injection, vehicle: saline): 100 % of control | T/C [15]: 100 % of control

CCOC(=O)c1[nH]c2ccccc2c1CN(CCCl)CCCl
T/C [10]: 116 % of control

C1CN1c1nc(N2CC2)nc(N2CC2)n1
T/C (dose: 0.13 mg/kg/injection, vehicle: saline): 94 % of control and 105 % of control | T/C [16]: 100 % of control and 102 % of control | T/C [11]: 108 % of control | T/C [17]: 97 % of control

C[C@H]1C(=O)O[C@@H]2CCN3CC=C(COC(=O)[C@](C)(O)[C@@]1(C)O)[C@H]23
T/C [18]: 94 % of control and 100 % of control | T/C [19]: 93 % of control and 94 % of control | T/C [20]: 94 % of control and 103 % of control | T/C [21]: 91 % of control and 103 % of control

CN(C)[C@@H]1C(=O)C(C(N)=O)=C(O)[C@@]2(O)C(=O)C3=C(O)c4c(O)cccc4C[C@H]3C[C@@H]12
T/C (dose: 3.75 mg/kg/injection, vehicle: saline): 114 % of control | T/C [1]: 107 % of control and 111 % of control | T/C [2]: 107 % of control | T/C [3]: 100 % of control and 107 % of control

COc1cc(-c2ccc(Nc3ccccc3C(=O)O)c(OC)c2)ccc1N
T/C [10]: 119 % of control

CS(=O)(=O)OCCCl
T/C (dose: 9.4 mg/kg/injection, vehicle: saline): 100 % of control | T/C (dose: 18.8 mg/kg/injection, vehicle: saline): 100 % of control and 103 % of control | T/C (dose: 37.5 mg/kg/injection, vehicle: saline): 100 % of control and 106 % of control | T/C (dose: 75.0 mg/kg/injection, vehicle: saline): 96 % of control and 103 % of control

CC(CCC(C)OS(C)(=O)=O)OS(C)(=O)=O (stereo unspecified)
T/C [22]: 103 % of control | T/C [23]: 103 % of control and 107 % of control | T/C [9]: 96 % of control and 100 % of control | T/C (dose: 16.0 mg/kg/injection, vehicle: saline): 107 % of control and 113 % of control

CC(=O)Nc1ccc2nc3ccc(NC(C)=O)cc3[n+](-c3ccccc3)c2c1
T/C [21]: 111 % of control | T/C [13]: 117 % of control

N#[N+]c1cnc([O-])[nH]c1=O
T/C [15]: 113 % of control | T/C [24]: 150 % of control | T/C [10]: 176 % of control

O=c1[nH]cc(F)c(=O)[nH]1
T/C [24]: 161 % of control | T/C [10]: 179 % of control and 180 % of control | T/C [12]: 193 % of control and 246 % of control

C#CCN(C)Cc1ccccc1
T/C [21]: 93 % of control | T/C [13]: 93 % of control | T/C [14]: 96 % of control | T/C [7]: 96 % of control

CSc1ncnc2nc[nH]c12
T/C [21]: 100 % of control and 103 % of control | T/C [13]: 96 % of control and 115 % of control | T/C [14]: 103 % of control | T/C [7]: 100 % of control and 115 % of control

Nc1nc2n[nH]nc2c(=O)[nH]1
T/C (dose: 25.0 mg/kg/injection, vehicle: alkali diluted with saline): 106 % of control | T/C (dose: 50.0 mg/kg/injection, vehicle: alkali diluted with saline): 120 % of control | T/C (dose: 200.0 mg/kg/injection, vehicle: alkali diluted with saline): 90 % of control

Nc1nc(F)nc2c1ncn2C1OC(CO)C(O)C1O (stereo unspecified)
T/C [16]: 100 % of control | T/C [11]: 107 % of control and 114 % of control | T/C [17]: 92 % of control and 103 % of control | T/C [22]: 107 % of control | T/C [23]: 96 % of control

CC(=O)N(C)C
T/C [4]: 87 % of control | T/C [6]: 88 % of control | T/C [25]: 100 % of control

OC(CBr)C(O)C(O)C(O)CBr (stereo unspecified)
T/C [21]: 115 % of control | T/C [13]: 115 % of control | T/C [7]: 115 % of control

N=[N+]=CC(=O)OCC(N)C(=O)O (stereo unspecified)
T/C [18]: 102 % of control and 111 % of control | T/C [19]: 102 % of control and 108 % of control | T/C [20]: 91 % of control and 114 % of control

O=c1cn[nH]c(=O)[nH]1
T/C [4]: 93 % of control and 108 % of control | T/C [5]: 103 % of control and 105 % of control | T/C [6]: 97 % of control and 106 % of control | T/C [25]: 102 % of control and 103 % of control

O=C(O)CCCc1ccc(N(CCCl)CCCl)cc1
T/C [18]: 100 % of control and 105 % of control | T/C [19]: 100 % of control and 123 % of control | T/C [20]: 114 % of control

CS(=O)(=O)OCCC(=O)N1CCN(C(=O)CCOS(C)(=O)=O)CC1
T/C [14]: 237 % of control | T/C [7]: 303 % of control
